Laboratory results: patent publication US20180312473A1, “PHENAZINE DERIVATIVES AS ANTIMICROBIAL AGENTS” (priority 2015, published 2018)
In brackets after ≈: the same amount, converted by molar mass. Like-named read-outs stand apart in the source and are kept apart here.

Legend:
[1] = system: MRSA-2 (methicillin-resistant Staphylococcus aureus clinical isolate); assay: MIC assay (broth microdilution, CLSI); format: cell-based; settings: read-out: MIC, MRSA-2
[2] = system: Enterococcus faecium (ATCC 700221), VRE; assay: MIC assay (broth microdilution, CLSI); format: cell-based
[3] = system: MRSA BAA-1707; assay: MIC assay (broth microdilution, CLSI); settings: Staphylococcus aureus, read-out: MIC, MRSA BAA-1707
[4] = system: Staphylococcus epidermidis (ATCC 35984), MRSE; assay: MIC assay (broth microdilution, CLSI); format: cell-based; settings: for MIC: Staphylococcus epidermidis
[5] = system: MRSA BAA-44; assay: MIC assay (broth microdilution, CLSI); settings: Staphylococcus aureus, read-out: MIC, MRSA BAA-44
[6] = system: MRSA-2 planktonic cells and biofilms; assay: Calgary Biofilm Device (CBD) assay, MBC/MBEC; format: cell-based, Staphylococcus aureus
[7] = system: Staphylococcus epidermidis (ATCC 12228); assay: MIC assay (broth microdilution, CLSI); format: cell-based
[8] = system: human red blood cells; assay: Hemolysis assay with red blood cells
Protocol: The hemolysis activities of select compounds of the invention were determined. […] The washing was repeated three times with the buffer. In 96-well plate, test compounds were added to the buffer from DMSO stocks. […] The plate was then incubated for 1 hour at 37° C. After incubation, the plate was centrifuged for 5 minutes at 3,500 rpm. Then 80 μL of the supernatant was transferred to another 96-well plate, and the optical density (OD) was read at 405 nm. DMSO served as the negative control (0% hemolysis), while Triton X served as the positive control (100% hemolysis). The percent of hemolysis was calculated as (OD405 of the compound−OD405 of DMSO)/(OD405 of Triton X−OD405 of the buffer).
The washing was repeated three times with the buffer. In 96-well plate, test compounds were added to the buffer from DMSO stocks. […] The plate was then incubated for 1 hour at 37° C. After incubation, the plate was centrifuged for 5 minutes at 3,500 rpm. Then 80 μL of the supernatant was transferred to another 96-well plate and the optical density (OD) was read at 405 nm. DMSO served as our negative control (0% hemolysis) while Triton X served as our positive control (100% hemolysis). The percent of hemolysis was calculated as (OD405 of the test compound−OD405 DMSO)/(OD405 Triton X−OD405 buffer) from three independent experiments.

[9] = system: MRSA-1 (methicillin-resistant Staphylococcus aureus clinical isolate); assay: MIC assay (broth microdilution, CLSI); format: cell-based; settings: Table 2A
[10] = system: VRE (E. faecium ATCC 700221) planktonic cells and biofilms; assay: Calgary Biofilm Device (CBD) assay, MBC/MBEC; format: cell-based, Enterococcus faecium; settings: Enterococcus; Table 8; c lowest concentration tested; read-out: VRE 700221 MBC
[11] = in vitro; format: cell-based; settings: human
Protocol: (§1) The cytotoxicities of select compounds of the invention against HeLa cells were determined. HeLa cytotoxicity was assessed using the LDH release assay described by CYTOTOX96 (Promega G1780). HeLa cells were grown in Dulbecco's Modified Eagle Medium (DMEM; Gibco) supplemented with 10% Fetal Bovine Serum (FBS) at 37° C. with 5% CO2. […] Triton X-100 (at 2% v/v) was used as the positive control for maximum lactate dehydrogenate (LDH) activity in this assay (e.g., complete cell death), while “medium only” lanes served as negative control lanes (e.g., no cell death). DMSO was used as the vehicle control. […] Finally, Stop Solution (50 μL) was added to the incubating plates, and the absorbance was measured at 490 nm.
(§2) HeLa cytotoxicity was assessed using the LDH release assay described by CYTOTOX96 (Promega G1780). HeLa cells were grown in Dulbecco's Modified Eagle Medium (DMEM; Gibco) supplemented with 10% Fetal Bovine Serum (FBS) at 37° C. with 5% CO2. […] Triton X-100 (at 2% v/v) was used as the positive control for maximum lactate dehydrogenate (LDH) activity in this assay (e.g., complete cell death), while “medium only” lanes served as negative control lanes (e.g., no cell death). DMSO was used as our vehicle control. […] Finally, Stop Solution (50 μL) was added to the incubating plates and the absorbance was measured at 490 nm. Results are from three independent experiments (FIG. 19)

[12] = system: HeLa cells; assay: in vitro; format: cell-based
Protocol: as §1, §2

[13] = system: MRSE (S. epidermidis ATCC 35984) planktonic cells and biofilms; assay: Calgary Biofilm Device (CBD) assay, MBC/MBEC; format: cell-based, Staphylococcus epidermidis; settings: Staphylococcus epidermidis; Table 8; read-out: MRSE 35984 MBC
[14] = Staphylococcus aureus, MRSA, Table 2A
[15] = Staphylococcus aureus, MRSA, Table 7, a midpoint of 2-fold range, b lowest concentration tested
[16] = Enterococcus faecium, Table 2A, read-out: MIC, Enterococcus faecium (ATCC 700221)
[17] = Table 7, b lowest concentration tested, read-out: MIC, VRE 700221
[18] = Table 2A, read-out: MIC, Staphylococcus epidermidis (ATCC 35984)
[19] = Table 7, read-out: MIC, MRSE 35984
[20] = Staphylococcus aureus, MRSA, Table 4, read-out: MBC, MRSA-2
[21] = Staphylococcus aureus, MRSA, Table 8, a/b 2-/4-fold range in independent experiments, read-out: MRSA-2 MBC
[22] = Staphylococcus epidermidis, ATCC12228, Table 2A, read-out: MIC, Staphylococcus epidermidis (ATCC 12228)
[23] = Staphylococcus epidermidis, ATCC12228, Table 7, b lowest concentration tested, read-out: MIC, S. epidermidis 12228

| Compound | MIC [1, 14] | MIC [1, 15] | MIC [2, 16] | MIC [2, 17] | MIC [3] | melting point | MIC [4, 18] | MIC [4, 19] | MIC [5] | MBC [6, 20] | MBC [6, 21] | MBEC:MBC ratio, MRSA-2 ([6]; Table 4) | MIC [7, 22] | MIC [7, 23] | % Hemolysis (200 μM) ([8]; human, 1 h, 200 μM, pH 7.2) | % Hemolysis at 200 μM ([8]; human, 1 h, 200 μM, pH 7.2) | MBC [10] | IC50 at 24 h [11] | MBC [13] | also measured |
| --- | --- | --- | --- | --- | --- | --- | --- | --- | --- | --- | --- | --- | --- | --- | --- | --- | --- | --- | --- | --- |
| Oc1c(Cl)cc(Cl)c2nc3ccccc3nc12 [Compound 3, 2,4-Dichloro-1-hydroxyphenazine] | 3.13 µM (≈ 0.83 µg/mL) | 3.13 µM (≈ 0.83 µg/mL) | 12.5 µM (≈ 3.31 µg/mL) | 12.5 µM (≈ 3.31 µg/mL) | 3.13 µM (≈ 0.83 µg/mL) | 205 to 207 °C | 3.13 µM (≈ 0.83 µg/mL) | 3.13 µM (≈ 0.83 µg/mL) | 3.13 µM (≈ 0.83 µg/mL) | 62.5 µM (≈ 16.6 µg/mL) | 62.5 µM (≈ 16.6 µg/mL) | >16.0 | 3.13 µM (≈ 0.83 µg/mL) | 3.13 µM (≈ 0.83 µg/mL) | ≤1% | ≤1% |  |  |  | MIC ([9]; Staphylococcus aureus, MRSA, read-out: MIC, MRSA-1): 3.13 µM (≈ 0.83 µg/mL) |
| Oc1c(I)cc(I)c2nc3ccccc3nc12 [Compound 4, 2,4,-Diiodo-1-hydroxyphenazine] |  | 3.13 µM (≈ 1.4 µg/mL) |  | 6.25 µM (≈ 2.8 µg/mL) | 3.13 µM (≈ 1.4 µg/mL) |  |  | 1.17 µM (≈ 0.524 µg/mL) | 3.13 µM (≈ 1.4 µg/mL) |  | 31.3 µM (≈ 14 µg/mL) | 3.0 |  | 1.56 µM (≈ 0.699 µg/mL) |  | ≤1% | 23.5 µM (≈ 10.5 µg/mL) | > 100 µM | 31.3 µM (≈ 14 µg/mL) | MIC ([1]; Table 2A): 3.13 µM (≈ 1.4 µg/mL); MIC ([2]; Table 2A, read-out: MIC, Enterococcus faecium (ATCC 700221)): 6.25 µM (≈ 2.8 µg/mL); IC50 [12]: > 100 µM; MIC, Staphylococcus epidermidis (ATCC 35984) ([4]; Table 2A): 0.78 to 1.56 µM; MBEC, MRSA-2 ([6]; Table 4): 93.8 µM; MBC ([6]; Table 4, read-out: MBC, MRSA-2): 31.3 µM (≈ 14 µg/mL); MIC ([7]; Table 2A, read-out: MIC, Staphylococcus epidermidis (ATCC 12228)): 1.56 µM (≈ 0.699 µg/mL); % Hemolysis (200 μM) [8]: ≤1%; MIC, MRSA-1 [9]: 0.78 to 1.56 µM |
| Oc1c(Cl)cc(Br)c2nc3ccccc3nc12 [Compound 5, 4-Bromo-2-chloro-1-hydroxyphenazine] |  |  | 6.25 µM (≈ 1.93 µg/mL) | 6.25 µM (≈ 1.93 µg/mL) |  | 229 to 231 °C |  |  | 3.13 µM (≈ 0.969 µg/mL) | 62.5 µM (≈ 19.3 µg/mL) | 62.5 µM (≈ 19.3 µg/mL) |  | 3.13 µM (≈ 0.969 µg/mL) | 3.13 µM (≈ 0.969 µg/mL) | ≤1% | ≤1% | 11.7 µM (≈ 3.62 µg/mL) | > 100 µM | 31.3 µM (≈ 9.69 µg/mL) | IC50 ([12]; human, 24 h): > 100 µM |
| Oc1c(I)cc(Cl)c2nc3ccccc3nc12 [Compound 9, 4-Chloro-2-iodo-1-hydroxyphenazine] | 25 µM (≈ 8.91 µg/mL) | 25 µM (≈ 8.91 µg/mL) | 6.25 µM (≈ 2.23 µg/mL) | 6.25 µM (≈ 2.23 µg/mL) | 3.13 µM (≈ 1.12 µg/mL) | 175 to 177 °C | 25 µM (≈ 8.91 µg/mL) | 25 µM (≈ 8.91 µg/mL) | 12.5 µM (≈ 4.46 µg/mL) | 93.8 µM (≈ 33.4 µg/mL) | 93.8 µM (≈ 33.4 µg/mL) | 2.7 | 25 µM (≈ 8.91 µg/mL) | 25 µM (≈ 8.91 µg/mL) | ≤1% | ≤1% |  |  | 125 µM (≈ 44.6 µg/mL) |  |
| Oc1c(I)cc(Br)c2nc3ccccc3nc12 [Compound 10, 4-Bromo-2-iodo-1-hydroxyphenazine] |  |  | 6.25 µM (≈ 2.51 µg/mL) | 6.25 µM (≈ 2.51 µg/mL) |  | 188 to 190 °C |  |  |  | 46.9 µM (≈ 18.8 µg/mL) | 46.9 µM (≈ 18.8 µg/mL) |  |  |  | 1.3% | 1.3% |  |  |  |  |
| C=CCc1cc(Br)c2nc3cc(Br)c(Br)cc3nc2c1O [Compound 24, 2-Allyl-4,7,8-tribromo-1-hydroxyphenazine] |  | > 100 µM |  | > 100 µM |  | 187 to 189 °C |  |  |  |  |  |  |  | > 100 µM |  |  |  |  |  |  |
